Measured values published in patent EP4603105A1, “PHARMACEUTICAL COMPOSITION CONTAINING CYCLIC COMPOUND HAVING SELECTIVE KRAS INHIBITORY EFFECT AGAINST HRAS AND NRAS” (CHUGAI SEIYAKU KABUSHIKI KAISHA, priority 2022, dated 2024).
Where two headings read alike, the source gives them in different places.

How the values were obtained:
[1] = target: GDP-bound KRAS wild-type protein (Homo sapiens, UniProt P01116); assay: Binding to KRAS by surface plasmon resonance (SPR), dissociation constant KD
How it was run: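 Running buffer contained 10 µM GDP and 10 mM MgCl2 to keep RAS in the GDP state, with 4% DMSO at pH 7.4. Compounds were flowed at 100 µL/min in 75 s steps of rising concentration over captured biotin-Avi RAS at 30°C. Sensorgrams were fitted 1:1 for KD.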

[2] = target: GDP-bound NRAS wild-type protein (Homo sapiens, UniProt P01111); assay: Binding to NRAS by surface plasmon resonance (SPR), KD and KD ratio to KRAS
GDP-bound NRAS wild-type protein, sequence (P01111 whole entry): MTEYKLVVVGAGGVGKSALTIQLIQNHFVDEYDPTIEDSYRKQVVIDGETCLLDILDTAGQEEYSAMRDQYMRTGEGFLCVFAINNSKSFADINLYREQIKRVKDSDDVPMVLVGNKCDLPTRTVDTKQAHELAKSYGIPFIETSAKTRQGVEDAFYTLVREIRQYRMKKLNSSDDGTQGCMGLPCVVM
How it was run: (§1)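 Compound binding is evaluated by SPR single-cycle kinetics, with concentrations added intermittently from low to high for 75 s each. Target surfaces carry GDP-loaded biotinylated Avi-RAS at about 100–300 RU, regenerated after each cycle; temperature 30°C. A 1:1 binding model gives KD.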

HRAS wild-type protein = HRAS wild-type protein (Homo sapiens, UniProt P01112); assay: Binding to HRAS by surface plasmon resonance (SPR), KD and KD ratio to KRAS
HRAS wild-type protein, sequence (P01112 whole entry): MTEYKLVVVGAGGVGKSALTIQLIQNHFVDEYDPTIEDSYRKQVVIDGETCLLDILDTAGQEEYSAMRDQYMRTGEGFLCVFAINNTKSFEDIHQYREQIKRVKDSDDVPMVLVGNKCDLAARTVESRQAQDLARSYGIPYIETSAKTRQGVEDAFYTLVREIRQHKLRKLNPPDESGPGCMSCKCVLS
How it was run: as §1

[3] = system: human lung cancer strain NCI-H441; assay: NCI-H441 cell proliferation inhibitory activity (CellTiter-Glo, 4 days); format: cell-based; details: read-out: NCl-H441 IC50
How it was run: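 Proliferation was scored by […] measured after the reagent was added to cultures kept at 37°C in 5% carbon dioxide.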

[4] = ratio of KD for GDP-bound NRAS wild-type protein to KD for KRAS
[5] = ratio of KD for HRAS wild-type protein to KD for KRAS
[6] = Single Cycle Kinetics, 1:1 binding model
[7] = ratio of KD with respect to GDP-bound NRAS wild-type protein to KD with respect to KRAS
[8] = ratio of KD with respect to HRAS wild-type protein to KD with respect to KRAS
[9] = 50% proliferation inhibitory concentration, four days

GDP-bound KRAS wild-type protein, sequence (P01116 1-188 isoform P01116-2): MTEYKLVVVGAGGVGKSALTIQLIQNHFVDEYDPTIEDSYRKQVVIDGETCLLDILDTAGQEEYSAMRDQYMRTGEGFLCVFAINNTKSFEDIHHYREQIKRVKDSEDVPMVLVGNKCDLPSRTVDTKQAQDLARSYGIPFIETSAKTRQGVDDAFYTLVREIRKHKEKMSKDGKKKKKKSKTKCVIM

Row | Structure (SMILES) | Kd ([1]; Single Cycle Kinetics) | NRAS /KRAS [2, 4] | HRAS /KRAS (HRAS wild-type protein; [5]) | IC50 ([3]; NCI-H441 cells, 4 days) | Kd ([1]; 1:1 binding model) | Kd [1, 6] | NRAS /KRAS [2, 7] | HRAS /KRAS (HRAS wild-type protein; [8]) | IC50 [3, 9]
1 | CCCO[C@@H]1C[C@H]2C(=O)NC3(CC(C)(C)C3)C(=O)N(C)[C@@H](C3CCCC3)C(=O)N(C)[C@H](C(=O)N(C)CC)CC(=O)N(C)[C@@H](COCC)C(=O)N[C@@H]([C@@H](C)CC)C(=O)N3C[C@@H](F)C[C@H]3C(=O)N(C)[C@H]3C/C=C\CCN(C3=O)[C@@H](Cc3ccc(C)cc3)C(=O)N(C)CC(=O)N[C@@H](CCc3ccc(C(F)(F)F)c(Cl)c3)C(=O)N2C1 [PP3465] | 0.6 nM | A (a compound having 10 or more and less than 20 is denoted as A) | A (a compound having 10 or more and less than 20 is denoted as A) | 23.3 nM | – | – | – | – | –
2 | CCC[C@H]1C(=O)N[C@@H]([C@@H](C)CC)C(=O)N(C2CC2)CC(=O)N(C)[C@H]2C/C=C\CCN(C2=O)[C@@H](Cc2ccc(C)cc2)C(=O)N(C)CC(=O)N[C@@H](CCc2ccc(Cl)c(Cl)c2)C(=O)N2C[C@H](OCC)C[C@H]2C(=O)NC2(CC(C)(C)C2)C(=O)N(C)[C@@H](C2CCCC2)C(=O)N(C)[C@H](C(=O)N(C)C)CC(=O)N1C [PP2559] | – | A (a compound having 10 or more and less than 20 is denoted as A) | A (a compound having 10 or more and less than 20 is denoted as A) | 103 nM | 0.91 nM | – | – | – | –
3 | CCO[C@@H]1C[C@H]2C(=O)NC3(CCC3)C(=O)N(C)[C@@H](C(CC)CC)C(=O)N(C)[C@H](C(=O)N3CCOCC3)CC(=O)N(C)[C@@H](CC)C(=O)N[C@@H]([C@@H](C)CC)C(=O)N(C)CC(=O)N(C)[C@H]3C/C=C\CCN(C3=O)[C@@H](Cc3ccc(C(F)(F)F)cc3)C(=O)N(C)CC(=O)N[C@@H](CCc3cc(F)c(C(F)(F)F)c(F)c3)C(=O)N2C1 [PP1286] | – | – | – | – | – | 0.65 nM | AA (a compound having 20 or more is denoted as AA) | A (a compound having 10 or more and less than 20 is denoted as A) | 58.8 nM
4 | CCCOC[C@H]1C(=O)N[C@@H]([C@@H](C)CC)C(=O)N(C)CC(=O)N(C)[C@H]2C/C=C\CCN(C2=O)[C@@H](Cc2ccc(C)cc2)C(=O)N(C)CC(=O)N[C@@H](CCc2cc(F)c(C(F)(F)F)c(F)c2)C(=O)N2C[C@H](OCC)C[C@H]2C(=O)NC2(CC(C)(C)C2)C(=O)N(C)[C@@H](CC2CCC2)C(=O)N(C)[C@H](C(=O)N(C)C)CC(=O)N1C [PP2752] | – | A (a compound having 10 or more and less than 20 is denoted as A) | A (a compound having 10 or more and less than 20 is denoted as A) | 70.3 nM | 1.2 nM | – | – | – | –
5 | CCO[C@@H]1C[C@H]2C(=O)NC3(CC(C)(C)C3)C(=O)N(C)[C@@H](C3CCCC3)C(=O)N(C)[C@H](C(=O)N(C)CC)CC(=O)N(C)[C@@H]([C@H](C)OC)C(=O)N[C@@H]([C@@H](C)CC)C(=O)N3CCC[C@H]3C(=O)N(C)[C@H]3C/C=C\CCN(C3=O)[C@@H](Cc3ccc(C(F)(F)F)cc3)C(=O)N(C)CC(=O)N[C@@H](CCc3ccc(C(F)(F)F)c(OC)c3)C(=O)N2C1 [PP3222] | 1.4 nM | A (a compound having 10 or more and less than 20 is denoted as A) | A (a compound having 10 or more and less than 20 is denoted as A) | 71.7 nM | – | – | – | – | –
6 | CCO[C@@H]1C[C@H]2C(=O)NC3(CCC3)C(=O)N(C)[C@@H](C(CC)CC)C(=O)N(C)[C@H](C(=O)N(C)C)CC(=O)N(C)[C@@H](CC)C(=O)N[C@@H]([C@@H](C)CC)C(=O)N(C)CC(=O)N(C)[C@H]3C/C=C\CCN(C3=O)[C@@H](Cc3ccc(C(F)(F)F)cc3)C(=O)N(C)CC(=O)N[C@@H](CCc3ccc(Cl)c(Cl)c3)C(=O)N2C1 [PP1215] | – | – | – | – | – | 0.42 nM | AA (a compound having 20 or more is denoted as AA) | A (a compound having 10 or more and less than 20 is denoted as A) | 33.4 nM
7 | C=C(C)C[C@H]1C(=O)N(C)[C@H](C(=O)N(C)C)CC(=O)N(C)[C@@H](CCC)C(=O)N[C@@H]([C@@H](C)CC)C(=O)N2CCC[C@H]2C(=O)N(C)[C@H]2C/C=C\CCN(C2=O)[C@@H](Cc2ccc(C(F)(F)F)cc2)C(=O)N(C)CC(=O)N[C@@H](CCc2ccc(C(F)(F)F)c(OC)c2)C(=O)N2C[C@H](OCC)C[C@H]2C(=O)N(C)C2(CCC2)C(=O)N1C [PP3335] | 2.5 nM | A (a compound having 10 or more and less than 20 is denoted as A) | A (a compound having 10 or more and less than 20 is denoted as A) | 90.6 nM | – | – | – | – | –
8 | CCC[C@H]1C(=O)N[C@@H]([C@@H](C)CC)C(=O)N(C2CC2)CC(=O)N(C)[C@H]2C/C=C\CCN(C2=O)[C@@H](CC2CCCCC2)C(=O)N(C)CC(=O)N[C@@H](CCc2ccc(C(F)(F)F)c(OC)c2)C(=O)N2C[C@@H](C)C[C@H]2C(=O)N(C)C2(CCC2)C(=O)N(C)[C@@H](C2CCCC2)C(=O)N(C)[C@H](C(=O)N(C)C)CC(=O)N1C [PP2372] | – | A (a compound having 10 or more and less than 20 is denoted as A) | B (a compound having 3 or more and less than 10 is denoted as B) | 3.3 nM | 0.79 nM | – | – | – | –
9 | C=CC[C@H]1C(=O)N(C)[C@H](C(=O)N(C)C)CC(=O)N(C)[C@@H](CC(C)C)C(=O)N[C@@H]([C@@H](C)CC)C(=O)N(C)CC(=O)N(C)[C@H]2C/C=C\CCN(C2=O)[C@@H](Cc2ccc(C)cc2)C(=O)N(C)CC(=O)N[C@@H](CCc2ccc(C(F)(F)F)c(OC)c2)C(=O)N2C[C@H](OCC)C[C@H]2C(=O)N(C)C2(CCC2)C(=O)N1C [PP3344] | 1.4 nM | A (a compound having 10 or more and less than 20 is denoted as A) | B (a compound having 3 or more and less than 10 is denoted as B) | 54.9 nM | – | – | – | – | –
10 | CCOC[C@H]1C(=O)N[C@@H]([C@@H](C)CC)C(=O)N(C2CC2)CC(=O)N(C)[C@@H]2C/C=C\CCN(C2=O)[C@@H](Cc2ccc(C)cc2)C(=O)N(C)CC(=O)N[C@@H](CCc2ccc(C(F)(F)F)c(OC)c2)C(=O)N2C[C@H](OCC)C[C@@H]2C(=O)NC2(CC(C)(C)C2)C(=O)N(C)[C@H](CC2CCC2)C(=O)N(C)[C@H](C(=O)N(C)C)CC(=O)N1C [PP2760] | – | A (a compound having 10 or more and less than 20 is denoted as A) | B (a compound having 3 or more and less than 10 is denoted as B) | 144 nM | 4.8 nM | – | – | – | –
11 | CCC[C@H]1C(=O)N[C@@H]([C@@H](C)CC)C(=O)N(C2CC2)CC(=O)N(C)[C@H]2C/C=C\CCN(C2=O)[C@@H](Cc2ccc(C(F)(F)F)cc2)C(=O)N(C)CC(=O)N[C@@H](CCc2ccc(C(F)(F)F)c(OC)c2)C(=O)N2C[C@H](OCC)C[C@H]2C(=O)OC2(CCC2)C(=O)N(C)[C@@H](C2CCCC2)C(=O)N(C)[C@H](C(=O)N(C)C)CC(=O)N1C [PP3369] | 0.86 nM | A (a compound having 10 or more and less than 20 is denoted as A) | A (a compound having 10 or more and less than 20 is denoted as A) | 9.1 nM | – | – | – | – | –
12 | CCCOC[C@H]1C(=O)N[C@@H]([C@@H](C)CC)C(=O)N(C)CC(=O)N(C)[C@H]2C/C=C\CCN(C2=O)[C@@H](Cc2ccc(C)cc2)C(=O)N(C)CC(=O)N[C@@H](CCc2ccc(C(F)(F)F)c(OC)c2)C(=O)N2C[C@H](OCC)C[C@H]2C(=O)NC2(CC(C)(C)C2)C(=O)N(C)[C@@H](C2CCCC2)C(=O)N(C)[C@H](C(=O)N(C)C)CC(=O)N1C [PP2449] | – | A (a compound having 10 or more and less than 20 is denoted as A) | A (a compound having 10 or more and less than 20 is denoted as A) | 7.8 nM | 0.061 nM | – | – | – | –
13 | C#CCN1CC(=O)N(C)[C@H]2C/C=C\CCN(C2=O)[C@@H](Cc2ccc(C(F)F)cc2)C(=O)N(C)CC(=O)N[C@@H](CCc2cc(F)c(C(F)(F)F)c(F)c2)C(=O)N2C[C@H](OC(C)C)C[C@H]2C(=O)N(C)C2(CCC2)C(=O)N(C)[C@@H](C(CC)CC)C(=O)N(C)[C@H](C(=O)N(C)C)CC(=O)N(C)[C@@H](CC(F)(F)F)C(=O)N[C@@H](C(C)C)C1=O [PP3496] | 0.43 nM | A (a compound having 10 or more and less than 20 is denoted as A) | A (a compound having 10 or more and less than 20 is denoted as A) | 11.6 nM | – | – | – | – | –
14 | CCO[C@@H]1C[C@H]2C(=O)NC3(CCCC3)C(=O)N(C)[C@@H](C3CCCC3)C(=O)N(C)[C@H](C(=O)N(C)C)CC(=O)N(C)[C@@H](CC)C(=O)N[C@@H]([C@@H](C)CC)C(=O)N(C)CC(=O)N(C)[C@H]3CC[C@@H](C)CN(C3=O)[C@@H](Cc3ccc(C(F)(F)F)cc3)C(=O)N(C)CC(=O)N[C@@H](CCc3ccc(C(F)(F)F)c(Cl)c3)C(=O)N2C1 [PP1376] | – | – | – | – | – | 0.037 nM | B (a compound having 3 or more and less than 10 is denoted as B) | B (a compound having 3 or more and less than 10 is denoted as B) | 3.5 nM
15 | CCO[C@@H]1C[C@H]2C(=O)OC3(CCC3)C(=O)N(C)[C@@H](C3CCCC3)C(=O)N(C)[C@H](C(=O)N(C)C)CC(=O)N(C)[C@@H]([C@@H](C)OC)C(=O)N[C@@H]([C@@H](C)CC)C(=O)N(C3CC3)CC(=O)N(C)[C@H]3C/C=C\CCN(C3=O)[C@@H](Cc3ccc(C)cc3)C(=O)N(C)CC(=O)N[C@@H](CCc3ccc(C(F)(F)F)c(OC)c3)C(=O)N2C1 [PP3393] | 0.51 nM | A (a compound having 10 or more and less than 20 is denoted as A) | B (a compound having 3 or more and less than 10 is denoted as B) | 4.7 nM | – | – | – | – | –
